Data: patent US9828384B2, “Spiro-lactam NMDA receptor modulators and uses thereof” (Aptinyx Inc., priority 2013, dated 2017)
Read-outs that look alike come from different tables or passages of the source.

How the values were obtained:
[1] = test system: LTP; experiment: LTP augmentation; details: LTP concentration 1 uM
[2] = biological target: T1, NMDA receptor (Rattus norvegicus, UniProt P35439); experiment: [3H] MK-801 Binding Assay (MK-801 Glycine Site Binding Assay: Rat Cortex)
T1 construct: well washed rat cortical membranes (200 μg); from tissue; host or cells: rat cerebral cortex membranes
Experimental: Assays were conducted as described in Moskal et al. (Moskal, J. R., Kuo, A. G., Weiss, C., Wood, P. L., O'Connor Hanson, A., Kelso, S., Harris, R. B., Disterhoft, J. F., 2005. GLYX-13: a monoclonal antibody-derived peptide that acts as an N-methyl-D-aspartate receptor modulator. Neuropharmacology. 49, 1077-87) The potentiation of [^3H]MK-801 binding (5 nM; 22.5 Ci/mmol) to well washed rat cortical membranes (200 μg) was measured under non-equilibrium conditions (15 min @25° C.) in the presence of increasing concentrations of test compounds and 50 μM glutamate. Zero levels were determined in the absence of any glycine ligand and in the presence of 30 μM 5,7 DCKA. Maximal stimulation was measured in the presence of 1 mM glycine, and 50 μM glutamate was present in all samples. The facilitation of [^3H]MK-801 binding by tests compounds was calculated by using a 3 parameter log agonist vs. response equation (Graph pad Prism, USA) and potency (EC50, expressed in pM) and maximal activity (% maximal stimulation) were calculated for the test compound.

[3] = Porsolt floating time inhibition; type: in vivo; details: 1 hour post dose
[4] = Table 3, read-out: MK-801 Glycine Site Binding Assay: Rat Cortex EC50

Molecule	LTP: LTP Augmentation (%) [1]	EC50 [2, 4]	Unified Activity Data: LTP Augmentation (Percent) [1]	other results
2-(2-hydroxy-1-(pyrimidin-2-yl)propyl)-3,6-dimethyl-2, 5-diazaspiro[3,4]octan-1-one [Compound C-33]	30%	0.00713 nM	–	–
C[C@@H](O)[C@@H](c1ncno1)N1CC2(CCCN2C(=O)OC(C)(C)C)C1=O (stereo partly drawn) [Compound C-15, tert-butyl 2-((1S,2R)-2-hydroxy-1-(1,2,4-oxadiazol-5-yl)propyl)-1-oxo-2,5-diazaspiro[3,4]octane-5-carboxylate]	–	–	120%	Unified Activity Data: Porsolt Floating Time Inhibition (Percent) ([3]; 1 mg/kg PO): 86%
CC(O)C(c1ncccn1)N1CC2(CCC(C)N2C(=O)OC(C)(C)C)C1=O (centres unmarked) [Compound C-19, tert-butyl 2-(2-hydroxy-1-(pyrimidin-2-yl)propyl)-6-methyl-1-oxo-2,5-diazaspiro[3,4]octane-5-carboxylate]	110%	0.11 nM	–	–
CC1N([C@@H](c2nnco2)[C@H](C)O)C(=O)C12CCCN2C(=O)OC(C)(C)C (stereo partly drawn) [Compound C-26, tert-butyl 2-((1R, 2S)-2-hydroxy-1-(1,3,4-oxadiazol-2-yl)propyl)-1-methyl-3-oxo-2,5-diazaspiro[3,4]octane-5-carboxylate]	65%	–	–	–
CC(O)C(c1ncccn1)N1C(=O)C2(CCCN2C(=O)OC(C)(C)C)C1C (centres unmarked) [Compound C-29, tert-butyl 2-(2-hydroxy-1-(pyrimidin-2-yl)propyl)-1-methyl-3-oxo-2,5-diazaspiro[3,4]octane-5-carboxylate]	125%	0.135 nM	–	–
CC(O)C(c1ncccn1)N1CC2(CCCN2)C1=O (centres unmarked) [Compound Y, 2-(2-hydroxy-1-(pyrimidin-2-yl)propyl)-2,5-diazaspiro[3.4]octan-1-one]	–	–	140%	Unified Activity Data: Porsolt Floating Time Inhibition (Percent) ([3]; 3 mg/kg IV): 92%; EC50 ([2]; Table 2, read-out: MK-801 Glycine Site Binding Assay: Rat Cortex EC50): 0.288 nM; Emax ([2]; maximal stimulation measured with 1 mM glycine, 50 μM glutamate): 14%; EC50 ([2]; rat cortical membranes, 50 μM glutamate, read-out: potency (EC50) for potentiation of [3H]MK-801 binding): 0.288 nM
